Assay results as given in ChEMBL document CHEMBL1201862, “PubChem BioAssay data set” (2004).
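All cell lines were grown in 96-well plates and treated with compound for 48 hours. Abbreviation: GI50, concentration required for 50% inhibition of growth.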 Calls of active or inactive are those of the source. Rule as the data show it: active = GI50 up to about 1.1 µM and inactive = higher.

Assays:
Experiment in all cases: inhibition of tumour cell growth, NCI panel, 48 h
[1] = system: COLO 205
[2] = system: NCI-H460
[3] = system: SNB-19
[4] = system: SN12C
[5] = system: OVCAR-8
[6] = system: RPMI-8226
[7] = system: SW-620
[8] = system: U-251
[9] = system: KM12
[10] = system: A549
[11] = system: SF-268
[12] = system: NCI-H23
[13] = system: ACHN
[14] = system: TK-10
[15] = system: UACC-257
[16] = system: HOP-62
[17] = system: HCT-116
[18] = system: SK-OV-3
[19] = system: MOLT-4
[20] = system: HCT-15

| Compound | GI50 [1] | GI50 [2] | GI50 [3] | GI50 [4] | GI50 [5] | GI50 [6] | GI50 [7] | GI50 [8] | GI50 [9] | GI50 [10] | GI50 [11] | GI50 [12] | GI50 [13] | GI50 [14] | GI50 [15] | GI50 [16] | GI50 [17] | GI50 [18] | GI50 [19] | GI50 [20] [µM] |
| --- | --- | --- | --- | --- | --- | --- | --- | --- | --- | --- | --- | --- | --- | --- | --- | --- | --- | --- | --- | --- |
| COc1ccc(-c2c3c(nc4nc(SCCc5ccccc5)nc(N)c24)CCCC3)cc1OC | > 100 µM (inactive) | > 100 µM (inactive) | > 100 µM (inactive) | > 100 µM (inactive) | > 100 µM (inactive) | > 100 µM (inactive) | > 100 µM (inactive) | > 100 µM (inactive) | > 100 µM (inactive) | > 100 µM (inactive) | > 100 µM (inactive) | > 100 µM (inactive) | > 100 µM (inactive) | > 100 µM (inactive) | > 100 µM (inactive) | 90.8 µM (inactive) | > 100 µM (inactive) | > 100 µM (inactive) | > 100 µM (inactive) | > 100 |
| O=C(N/N=C/c1ccccc1)c1c(F)c(F)c(F)c(F)c1F | > 100 µM (inactive) | > 100 µM (inactive) | > 100 µM (inactive) | > 100 µM (inactive) | > 100 µM (inactive) | > 100 µM (inactive) | 96.8 µM (inactive) | > 100 µM (inactive) | 86.1 µM (inactive) | > 100 µM (inactive) | > 100 µM (inactive) | > 100 µM (inactive) | > 100 µM (inactive) | > 100 µM (inactive) | > 100 µM (inactive) | > 100 µM (inactive) | 56 µM (inactive) | > 100 µM (inactive) | > 100 µM (inactive) | 50.1 |
| COc1ccc(/N=C(\C)c2ccncc2)cc1 | > 100 µM (inactive) | > 100 µM (inactive) | > 100 µM (inactive) | > 100 µM (inactive) | > 100 µM (inactive) | 16.7 µM (inactive) | 86.5 µM (inactive) | > 100 µM (inactive) | > 100 µM (inactive) | 47.2 µM (inactive) | 50.6 µM (inactive) | 89.3 µM (inactive) | 34.7 µM (inactive) | > 100 µM (inactive) | > 100 µM (inactive) | > 100 µM (inactive) | > 100 µM (inactive) | > 100 µM (inactive) | > 100 µM (inactive) | 32.1 |
| N#C/C(=C1/Sc2c(nc[nH]c2=O)N1c1ccccc1)c1nc2ccccc2[nH]1 | > 100 µM (inactive) | > 100 µM (inactive) | > 100 µM (inactive) | > 100 µM (inactive) | > 100 µM (inactive) | > 100 µM (inactive) | > 100 µM (inactive) | > 100 µM (inactive) | > 100 µM (inactive) | > 100 µM (inactive) | > 100 µM (inactive) | > 100 µM (inactive) | > 100 µM (inactive) | > 100 µM (inactive) | > 100 µM (inactive) | > 100 µM (inactive) | > 100 µM (inactive) | > 100 µM (inactive) | > 100 µM (inactive) | > 100 |
| O=C(O)CN(CC(=O)O)C(C(=O)O)c1ccccc1 (stereo not given) | > 100 µM (inactive) | > 100 µM (inactive) | > 100 µM (inactive) | > 100 µM (inactive) | > 100 µM (inactive) | > 100 µM (inactive) | > 100 µM (inactive) | > 100 µM (inactive) | > 100 µM (inactive) | > 100 µM (inactive) | > 100 µM (inactive) | > 100 µM (inactive) | > 100 µM (inactive) | > 100 µM (inactive) | > 100 µM (inactive) | > 100 µM (inactive) | > 100 µM (inactive) | > 100 µM (inactive) | > 100 µM (inactive) | > 100 |
| Cc1ccc(NC(=O)C(Cc2c[nH]c3ccccc23)NC(=O)Oc2ccccc2)cc1C (stereo not given) | 50.4 µM (inactive) | 39.4 µM (inactive) | > 100 µM (inactive) | 64.1 µM (inactive) | 57.5 µM (inactive) | 26.7 µM (inactive) | > 100 µM (inactive) | 80.2 µM (inactive) | 23.8 µM (inactive) | 66.4 µM (inactive) | 50.7 µM (inactive) | > 100 µM (inactive) | 84.3 µM (inactive) | 0.728 µM (active) | > 100 µM (inactive) | > 100 µM (inactive) | 61.5 µM (inactive) | > 100 µM (inactive) | 57.5 µM (inactive) | 62.4 |
